In the experiment the target is Ba/F3(EGFR^Del19/T790M/C797S) cells (Homo sapiens, UniProt P00533, DEL746-750/T790M/C797S, cells depend on it). The experiment in a line: Assay of activity on Ba/F3 cells (CTG, 72 h). In kind it is cell-based. The settings on record: read-out: IC50 (nM) Ba/F3 (EGFR^Del19/T790M/C797S). How it is done:
(2) A compound stock solution was prepared, and then diluted 3× to obtain a compound dilution. 30 nL of the compound dilution was added to a 384-well plate by Echo (Labcyte, Echo550). The cells were incubated in an incubator at 37° C. and 5% CO2 for 72 h.
The percent inhibition rate (% inhibition) was calculated by the following formula
LUMcmpd: Luminescence value of assay compound.
LUMpositive: Average LUM value of positive drug at a concentration of 10 μM.
LUMvehicle. Average LUM value of negative control group without drug treatment.
The nonlinear regression curve (dose response-variable slope) between the value of inhibition rate (%) and the logarithm of compound concentration was fitted with graphpad prism 8.0, the effect dose curve of compound was drawn, and the IC50 value was calculated.
Y=Bottom+(Top−Bottom)/(1+1^((LogIC50−X)*HillSlope))
X-axis: logarithm of compound concentration; Y axis: inhibition rate ([…]).

The structures appear in SMILES notation.

Chain of Ba/F3(EGFR^Del19/T790M/C797S) cells (P00533 with tags, fused parts or gaps DEL746-750/T790M/C797S): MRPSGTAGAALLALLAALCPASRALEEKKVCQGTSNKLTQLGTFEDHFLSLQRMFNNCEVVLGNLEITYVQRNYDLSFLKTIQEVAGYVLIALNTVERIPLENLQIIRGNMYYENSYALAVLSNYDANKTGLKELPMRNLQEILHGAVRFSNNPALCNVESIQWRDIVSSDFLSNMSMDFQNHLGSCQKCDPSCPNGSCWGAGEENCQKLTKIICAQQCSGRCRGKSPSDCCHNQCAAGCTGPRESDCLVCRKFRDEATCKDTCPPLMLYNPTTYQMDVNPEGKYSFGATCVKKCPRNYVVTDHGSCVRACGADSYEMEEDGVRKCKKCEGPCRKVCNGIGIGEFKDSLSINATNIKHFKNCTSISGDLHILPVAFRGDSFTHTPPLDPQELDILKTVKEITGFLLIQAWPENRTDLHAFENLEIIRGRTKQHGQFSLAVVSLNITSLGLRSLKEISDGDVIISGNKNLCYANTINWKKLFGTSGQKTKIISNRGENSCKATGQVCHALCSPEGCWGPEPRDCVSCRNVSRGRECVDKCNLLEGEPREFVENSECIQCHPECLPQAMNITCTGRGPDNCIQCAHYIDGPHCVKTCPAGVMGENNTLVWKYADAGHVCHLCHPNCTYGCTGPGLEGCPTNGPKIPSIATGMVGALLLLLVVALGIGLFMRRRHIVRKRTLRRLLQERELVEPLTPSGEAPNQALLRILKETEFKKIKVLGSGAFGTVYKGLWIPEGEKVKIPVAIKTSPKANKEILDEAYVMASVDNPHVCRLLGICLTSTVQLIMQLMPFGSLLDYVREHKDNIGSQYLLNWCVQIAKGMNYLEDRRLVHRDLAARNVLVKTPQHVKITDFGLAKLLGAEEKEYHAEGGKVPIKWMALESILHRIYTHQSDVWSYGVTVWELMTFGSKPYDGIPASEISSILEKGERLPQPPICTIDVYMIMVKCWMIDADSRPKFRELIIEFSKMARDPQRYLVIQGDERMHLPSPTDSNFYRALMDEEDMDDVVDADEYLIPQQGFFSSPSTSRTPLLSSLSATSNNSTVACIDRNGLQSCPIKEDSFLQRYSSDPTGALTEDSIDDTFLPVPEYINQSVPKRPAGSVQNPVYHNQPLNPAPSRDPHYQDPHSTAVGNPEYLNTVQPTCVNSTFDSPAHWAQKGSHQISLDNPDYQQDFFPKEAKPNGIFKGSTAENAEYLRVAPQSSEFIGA

In the case of `COc1cc(N2CCC(N3CCN(CCCC#Cc4cccc5c4CN(C4CCC(=O)NC4=O)C5=O)CC3)CC2)ccc1Nc1ncc(Cl)c(Nc2ccccc2P(C)(C)=O)n1` (centres unmarked) [Compound C126, 3-(4-(5-(4-(1-(4-((5-chloro-4-((2-(dimethylphosphoryl)phenyl)amino)pyrimidin-2-yl)amino)-3-methoxyphenyl)piperidin-4-yl)piperazin-1-yl)pent-1-yn-1-yl)-1-oxoisoindolin-2-yl)piperidine-2,6-dione], the GI50 is 1 to 100 nM.

As for `COc1cc(N2CCC(N3CCNCC3)CC2)c(C)cc1Nc1ncc(Br)c(Nc2ccc3nccnc3c2P(C)(C)=O)n1` [Compound C158-1], the GI50 is 1 to 100 nM.

As to `COc1cc(N2CCC(N3CCN(CCCCCCCCC#Cc4cccc5c4CN(C4CCC(=O)NC4=O)C5=O)CC3)CC2)ccc1Nc1ncc(Cl)c(Nc2ccccc2P(C)(C)=O)n1` (centres unmarked) [Compound C179, 3-(4-(10-(4-(1-(4-((5-chloro-4-((2-(dimethylphosphoryl)phenyl)amino)pyrimidin-2-yl)amino)-3-methoxyphenyl)piperidin-4-yl)piperazin-1-yl)dec-1-yn-1-yl)-1-oxoisoindolin-2-yl)piperidine-2,6-dione], the GI50 lay within 1 to 100 nM.

With `COc1cc(N2CCC3(CCN(CCCCCC#Cc4cc(F)cc5c4CN(C4CCC(=O)NC4=O)C5=O)CC3)CC2)c(C)cc1Nc1ncc(Br)c(Nc2ccc3nccnc3c2P(C)(C)=O)n1` (centres unmarked) [Compound C185, 3-(4-(7-(9-(4-((5-bromo-4-((5-(dimethylphosphoryl)quinoxalin-6-yl)amino)pyrimidin-2-yl)amino)-5-methoxy-2-methylphenyl)-3,9-diazaspiro[5.5]undecan-3-yl)hept-1-yn-1-yl)-6-fluoro-1-oxoisoindolin-2-yl)piperidine-2,6-dione], the GI50 is 1 to 100 nM.

`COc1cc(N2CCC(N3CCN(CCOCC#Cc4cc(C(F)(F)F)cc5c4CN(C4CCC(=O)NC4=O)C5=O)CC3)CC2)ccc1Nc1ncc(Cl)c(Nc2ccccc2P(C)(C)=O)n1` (centres unmarked) [Compound C200, 3-(4-(3-(2-(4-(1-(4-((5-chloro-4-((2-(dimethylphosphoryl)phenyl)amino)pyrimidin-2-yl)amino)-3-methoxyphenyl)piperidin-4-yl)piperazin-1-yl)ethoxy)prop-1-yn-1-yl)-1-oxo-6-(trifluoromethyl)isoindolin-2-yl)piperidine-2,6-dione]: the GI50 lay in the range of 101 to 200 nM.

Take `COc1cc(N2CCC(N3CCN(CCCCCC#Cc4cc(Cl)cc5c4CN(C4CCC(=O)NC4=O)C5=O)CC3)CC2)ccc1Nc1ncc(Cl)c(Nc2ccccc2P(C)(C)=O)n1` (centres unmarked) [Compound C202, 3-(6-chloro-4-(7-(4-(1-(4-((5-chloro-4-((2-(dimethylphosphoryl)phenyl)amino)pyrimidin-2-yl)amino)-3-methoxyphenyl)piperidin-4-yl)piperazin-1-yl)hept-1-yn-1-yl)-1-oxoisoindolin-2-yl)piperidine-2,6-dione]: the GI50 fell in the range of 1 to 100 nM.

With `COc1cc(N2CCC(N3CCN(CCCCCC#Cc4cc(C#N)cc5c4CN(C4CCC(=O)NC4=O)C5=O)CC3)CC2)ccc1Nc1ncc(Cl)c(Nc2ccccc2P(C)(C)=O)n1` (centres unmarked) [Compound C204, 7-(7-(4-(1-(4-((5-chloro-4-((2-(dimethylphosphoryl)phenyl)amino)pyrimidin-2-yl)amino)-3-methoxyphenyl)piperidin-4-yl)piperazin-1-yl)hept-1-yn-1-yl)-2-(2,6-dioxopiperidin-3-yl)-3-oxoisoindoline-5-carbonitrile], the GI50 was in the range of 1 to 100 nM.

For the molecule `COc1cc(N2CCC3(CCN(CCCCCCOc4cccc5c4CN(C4CCC(=O)NC4=O)C5=O)CC3)CC2)c(C)cc1Nc1ncc(Br)c(Nc2ccc3nccnc3c2P(C)(C)=O)n1` (centres unmarked) [Compound C212, 3-(4-((6-(9-(4-((5-bromo-4-((5-(dimethylphosphoryl)quinoxalin-6-yl)amino)pyrimidin-2-yl)amino)-5-methoxy-2-methylphenyl)-3,9-diazaspiro[5.5]undecan-3-yl)hexyl)oxy)-1-oxoisoindolin-2-yl)piperidine-2,6-dione], the GI50 fell in the range of 1 to 100 nM.

With `COc1cc(N2CCC(N3CCN(CCCC#Cc4ccc5c(c4)CN(C4CCC(=O)NC4=O)C5=O)CC3)CC2)ccc1Nc1ncc(Cl)c(Nc2ccccc2P(C)(C)=O)n1` (centres unmarked) [Compound C218, 3-(5-(5-(4-(1-(4-((5-chloro-4-((2-(dimethylphosphoryl)phenyl)amino)pyrimidin-2-yl)amino)-3-methoxyphenyl)piperidin-4-yl)piperazin-1-yl)pent-1-yn-1-yl)-1-oxoisoindolin-2-yl)piperidine-2,6-dione], the GI50 is 1 to 100 nM.

With `COc1cc(N2CCC(N3CCN(CCCC#Cc4cccc5c4CN(C4CCC(=O)NC4=O)C5=O)CC3)CC2)c(C)cc1Nc1ncc(Br)c(Nc2ccc3nccnc3c2P(C)(C)=O)n1` (centres unmarked) [Compound C227, 3-(4-(5-(4-(1-(4-((5-bromo-4-((5-(dimethylphosphoryl)quinoxalin-6-yl)amino)pyrimidin-2-yl)amino)-5-methoxy-2-methylphenyl)piperidin-4-yl)piperazin-1-yl)pent-1-yn-1-yl)-1-oxoisoindolin-2-yl)piperidine-2,6-dione], the GI50 was in the range of 1 to 100 nM.

As to `COc1cc(N2CCC3(CCN(CCCC#Cc4cccc5c4CN(C4CCC(=O)NC4=O)C5=O)CC3)CC2)c(C)cc1Nc1ncc(Br)c(Nc2ccc3nccnc3c2P(C)(C)=O)n1` (centres unmarked) [Compound C228, 3-(4-(5-(9-(4-((5-bromo-4-((5-(dimethylphosphoryl)quinoxalin-6-yl)amino)pyrimidin-2-yl)amino)-5-methoxy-2-methylphenyl)-3,9-diazaspiro[5.5]undecan-3-yl)pent-1-yn-1-yl)-1-oxoisoindolin-2-yl)piperidine-2,6-dione], the GI50 lay within 1 to 100 nM.

For `COc1cc(N2CCC(N3CCN(CCCCCC#Cc4cc(C#N)cc5c4CN(C4CCC(=O)NC4=O)C5=O)CC3)CC2)c(C)cc1Nc1ncc(Br)c(Nc2ccc3nccnc3c2P(C)(C)=O)n1` (centres unmarked) [Compound C229, 7-(7-(4-(1-(4-((5-bromo-4-((5-(dimethylphosphoryl)quinoxalin-6-yl)amino)pyrimidin-2-yl)amino)-5-methoxy-2-methylphenyl)piperidin-4-yl)piperazin-1-yl)hept-1-yn-1-yl)-2-(2,6-dioxopiperidin-3-yl)-3-oxoisoindoline-5-carbonitrile], the GI50 is 1 to 100 nM.

In the case of `COc1cc(N2CCC(N3CCN(CCCCc4ccc(-c5ccc6c(c5)CN(C5CCC(=O)NC5=O)C6=O)cc4)CC3)CC2)ccc1Nc1ncc(Cl)c(Nc2ccccc2P(C)(C)=O)n1` (centres unmarked) [Compound C236, 3-(5-(4-(4-(4-(1-(4-((5-chloro-4-((2-(dimethylphosphoryl)phenyl)amino)pyrimidin-2-yl)amino)-3-methoxyphenyl)piperidin-4-yl)piperazin-1-yl)butyl)phenyl)-1-oxoisoindolin-2-yl)piperidine-2,6-dione], the GI50 lay in the range of 1 to 100 nM.

On to `COc1cc(N2CCC(N3CCN(CCCCCCc4cccc5c4CN(C4CCC(=O)NC4=O)C5=O)CC3)CC2)ccc1Nc1ncc(Cl)c(Nc2ccccc2P(C)(C)=O)n1` (centres unmarked) [Compound C238, 3-(4-(6-(4-(1-(4-((5-chloro-4-((2-(dimethylphosphoryl)phenyl)amino)pyrimidin-2-yl)amino)-3-methoxyphenyl)piperidin-4-yl)piperazin-1-yl)hexyl)-1-oxoisoindolin-2-yl)piperidine-2,6-dione], for which the GI50 was 1 to 100 nM.

For the origin of these results see patent US20220306659A1, “COMPOUND INHIBITING AND INDUCING DEGRADATION OF EGFR AND ALK” (BEIJING TIDE PHARMACEUTICAL CO., LTD., priority 2019, published 2022).
